In one assay the test system is S. cerevisiae. Nature of the assay: Chronological lifespan of ageing stationary phase yeast culture (outgrowth viability). It counts as cell-based, Saccharomyces cerevisiae. The conditions noted are these: 40 μM tacrolimus. How it is done: Analysis of chronological lifespan in yeast involves assessment of the viability of a stationary phase culture over time. Yeast are stored in glycerol stocks at −80° C., inoculated into YPD (Yeast extract-Peptone-Dextrose) and incubated overnight. From this culture, a 1/25 dilution is prepared to produce an ageing culture that is incubated at 30° C. throughout the duration of the experiment. The first 24 hours of yeast growth are assessed in Complete Synthetic Media (CSM) to confirm that the culture has reached stationary phase. After 24 hours, when the culture has completed the exponential growth phase and has entered stationary phase, its viability can then be assessed. Viability is measured by taking a 5 μl sample of the ageing culture and diluting this into a total volume of 150 μlYPD. Growth of this “outgrowth culture” is measured using the Bioscreen-C MBR machine that both incubates the plates and measures optical turbidity every 20 minutes. Comparison of the viability curves of outgrowth cultures taken over several successive days can be used to observe the reduction in viability of the stationary phase culture over time. Specifically, the interval between the time taken for the outgrowth culture to reach OD600=0.6 on day 1, and the time taken to reach OD600=0.6 on a later day (for example day 7) can be used as a measure of the “ageing rate” of the culture. […]

In assay [1] the test system is C. elegans expressing wild-type human SOD-1 in the body wall muscle. Briefly: C. elegans lifespan assay, wild-type SOD-1 strain. The format is in vivo, Caenorhabditis elegans. The method, then: (§1) Tacrolimus was tested in a number of disease models using the nematode worm, Caenorhabditis elegans, in which aggregate-prone proteins associated with neurodegenerative diseases are expressed in certain cell types. The effect of tacrolimus was determined by measuring the lifespan of worms in the presence and absence of tacrolimus, using the following general methodology. All of the worms tested using these assays also contained, in addition to the transgene expressing the disease-related protein, a mutation in the bus-5 gene which confers drug-sensitivity.
C. elegans cultures were synchronised by incubating an asynchronous culture in basic sodium hypochlorite solution to kill everything but the bleach-resistant mature eggs. […] From this point on, each ageing population was inspected at regular intervals (e.g. daily) and viability assessed by counting the number of dead worms.
(§2) The cumulative number of dead worms for each population was used to generate a survival/viability plot to determine chronological lifespan (CLS). Survival was analysed using the Kaplan-Meier log-rank survival analysis method, using the Online Application for Survival (OASIS; see http://sbi.postech.ac.kr/oasis). […]
The effect of tacrolimus on C. elegans expressing wild-type or mutant human SOD-1 in the body wall muscle was determined. […]

Assay [2] has as its system C. elegans expressing 35 polyglutamine tract fused to YFP (Q35) in the body wall muscle. Briefly: C. elegans lifespan assay, polyglutamine Q35 strain. The following applies: p<0.05 vs. Q35 DMSO. It counts as in vivo, Caenorhabditis elegans. The method, then: as §1
C. elegans cultures were synchronised by incubating an asynchronous culture in basic sodium hypochlorite solution to kill everything but the bleach-resistant mature eggs. The eggs were added on to agar plates and then allowed to hatch and develop in the presence of the test compound (or vehicle) and bacterial food source. […] From this point on, each ageing population was inspected at regular intervals (e.g. daily) and viability assessed by counting the number of dead worms.
as §2

In a further assay the test system is caspase-3. Briefly: Motor neuron culture with Aβ1-42 insult: caspase-3 induction. The format is cell-based, rat. The conditions noted are these: all 3 concentrations, greatest effect at 100 nM; control increased by 91%. The method, then:
Primary motor neuron (MN) cultures generated from rat spinal cord were treated with 20 μM amyloid beta 1-42 peptide (Aβ1-42). This insult causes an acute increase in TDP-43 levels in the cells and serves as a model for the TDP-43 mislocalisation, aggregation and toxicity observed in the motor neurons of ALS patients (reviewed in Callizot et al, poster “Amyloid peptide and cytoplasmic TDP-43 accumulation in pathogenesis of ALS: an in vitro study”, http://www.neuro-sys.fr/IMG/pdf/poster_adpd2017_tdp43.pdf). This model was used to determine the effect of tacrolimus on TDP-43 toxicity in motor neurons.
A separate group of cells was incubated with a) mouse monoclonal anti-microtubule-associated-protein 2 (MAP-2) antibody, and b) rabbit polyclonal anti-caspase-3 antibody. This group was used to determine the number of caspase-3-positive MN, i.e. the number of overlapping MAP-2 and caspase-3-positive cells.

Another assay has as its system rat microglia. Nature of the assay: Microglial cell culture model of inflammation (LPS challenge). It counts as cell-based. The following applies: 100 ng/ml LPS overnight. The method, then: To investigate the effect of tacrolimus on microglial function, rat microglia were isolated as follows. A primary glial co-culture was isolated from P2 Sprague Dawley rat pups. The cells were cultured until confluency and then the microglia were isolated from the confluent glial cells through mechanical shaking. The isolated microglial cells were then subjected to inflammatory challenge by overnight exposure to 100 ng/ml lipopolysaccharide (LPS), in the presence or absence of tacrolimus. Glial cell activity was monitored by determining cell viability (Cell Counting Kit-8), the presence of reactive oxygen species (by quantitative fluorescence measurement in the supernatant/cell lysate), microvesicle shedding (by monitoring vesicle formation in cells loaded with Calcein-AM and then challenged with 1 mM ATP) and inflammatory cytokine production (by qPCR).

Take `C=CC[C@@H]1/C=C(\C)C[C@H](C)C[C@H](OC)[C@H]2O[C@@](O)(C(=O)C(=O)N3CCCC[C@H]3C(=O)O[C@H](/C(C)=C/[C@@H]3CC[C@@H](O)[C@H](OC)C3)[C@H](C)[C@@H](O)CC1=O)[C@H](C)C[C@@H]2OC` [tacrolimus, Tacrolimus]: the “rate of ageing / chronological lifespan of stationary phase yeast culture” value with S. cerevisiae was “significantly delays the rate of ageing and extends the chronological lifespan”. In addition, in the assay with S. cerevisiae (control without tacrolimus 287 minutes), the “interval between the x-intercepts at OD600=0.6 on days 1 and 9” value was determined as 63 min. Besides, the lifespan result is given as “significant increase in lifespan” in assay [1] (10 μg/ml in NGM agar, p<0.05 DMSO vs. Tacrolimus) and “significantly increases lifespan” in assay [2]. Moreover, the “increase in lifespan when bec-1 knocked down by RNAi” value in assay [1] (bec-1 RNAi, p>0.05 vs. bec-1 RNAi DMSO) was “virtually abolished”. In addition, in the assay with caspase-3, the “caspase-3 levels in response to Aβ1-42 insult” value was “increase was less”. In addition, the “LPS-induced oxidative stress (reactive oxygen species)” value in the assay on rat microglia (p<0.01 all concentrations, concentration-dependent) is reported as “significantly reduced”. Further, the “LPS-induced increase in metabolic activity of glial cells” value with rat microglia (p<0.01 for 100 nM and 1 μM) is “reduces this increase in a concentration-dependent manner”. Further, the LPS-induced microvesicle shedding entry in the assay on rat microglia (p<0.01 for 1 μM, concentration-dependent) was “increase is reduced”.

These data come from patent publication US20180085356A1, “METHOD OF TREATING DISEASE CHARACTERISED BY PROTEIN AGGREGATE DEPOSITION IN NEURONAL CELLS” (CHRONOS THERAPEUTICS LIMITED, priority 2013, published 2018).
